# Values of other authors in patent US9839606B2, “Formulation for treatment of hairs” (OSMA Cosmetics & Laboratories AG, priority 2013, dated 2017).
# Key:
# [1] = tested on: human dermal papilla cells (DPCs)
substance,measurement,setting,value
epigallocatechin-3-gallate [EGCG],proliferation of cultured DPCs,[1],promoted
same,hair growth in hair follicles ex vivo culture,hair follicles,promoted hair growth
